Where a name gives a salt, the structure may show the parent alone.

These results are taken from US5382584A, “Adenosine re-uptake inhibiting derivatives of diphenyl oxazoles, thiazoles and imidazoles” (Bristol-Myers Squibb Company, priority 1994, dated 1995).

This experiment can be described thus: neuroprotective activity of single enantiomers (test not specified). The source says:
A chiral synthetic procedure was also developed to provide single enantiomers of certain stereoisomeric compounds of Formula I. The procedure is illustrated in Scheme III. This synthesis results in a Formula I compound with a chiral center in the piperazine ring. […] While both enantiomers were neuroprotective, the S-(-)-enantiomer had about 30 times the activity of the R-(+)-enantiomer. [drawing 11]

Take `NC(=O)[C@@H]1CN(Cc2nc(-c3ccccc3)c(-c3ccccc3)o2)CCN1CC(=O)Nc1c(Cl)cc(N)cc1Cl` [S-(-)-enantiomer, S-(-)-2-(aminocarbonyl)-N-(4-amino-2,6-dichlorophenyl)-4-[(4,5-diphenyl-2-oxazolyl)methyl]-1-piperazineacetamide Trihydrochloride]: the neuroprotection result was “neuroprotective”. The “activity relative to the R-(+)-enantiomer” value (neuroprotective activity) is on record as “about 30 times”.

Consider `Cl.Cl.Cl.NC(=O)[C@H]1CN(Cc2nc(-c3ccccc3)c(-c3ccccc3)o2)CCN1CC(=O)Nc1c(Cl)cc(N)cc1Cl.O` [R-(+)-enantiomer, R-(+)-2-(aminocarbonyl)-N-(4-amino-2,6-dichlorophenyl)-4-[(4,5-diphenyl-2-oxazolyl)methyl]-1-piperazineacetamide trihydrochloride monohydrate], for which the neuroprotection result was “neuroprotective”.
